Data as given in patent US11090351B2, “Whitening agent” (KAO CORPORATION, priority 2016, dated 2021).
Read-outs that look alike come from different tables or passages of the source.

Tests used:
B16 melanoma cells [1] = test: Inhibition of melanogenesis in skin melanocytes (relative amount of extracellular melanin); assay type: cell-based; settings: Mus musculus
Description: (§1) B16 melanoma cells (DS pharma Biomedical) were used as skin melanocytes. The B16 melanoma cells were cultured in a CO2 incubator (37° C., 5% CO2) in 10 cm dishes containing the DMEM medium supplemented with 10% FBS. A cell suspension at 5.0×10^4 cells/mL was prepared from the cultured cells. 998 μL aliquots of the cell suspension were dispensed into 24 well plates and cultured in a CO2 incubator (37° C., 5% CO2) overnight. Subsequently, 2 μL of the DMSO solution of the methanol extract from Syzygium polyanthum prepared in Production Example 3 was added to each well (the final concentrations of the extract: 25 and 50 μg/mL) and the mixtures were further cultured for 72 hours. Arbutin (730 μM) was used instead of the extract as a positive control. DMSO was used as control.
The supernatants of the cultures prepared in (1) were collected, 200 μL each was transferred into a 96 well plate, and then the absorbance was measured at 510 nm. The relative amount of extracellular melanin was calculated by determining the relative value to the control.
(§2) The assay for tyrosinase activity was conducted in a procedure similar to that in Example 1 (3) using Compounds 1-3 as samples. In the tyrosinase activity assay, the final concentrations of each compound were adjusted to 100, 50, 25, and 12.5 mM and IC50 was calculated. Moreover, tests for melanogenesis inhibiting activity and for cytotoxicity were conducted in procedures similar to those in Example 2. The relative amount of extracellular melanin and the relative cell survival rate of skin melanocytes to which Compounds 1-3 were added were measured. The result of the tyrosinase activity assay is illustrated in Table 5 and the results of the measurements of the relative amount of extracellular melanin and the relative cell survival rate are illustrated in Table 6.

B16 melanoma cells [2] = test: Cytotoxicity test (MTT assay), relative cell survival rate; assay type: cell-based
Description: as §1
The MTT assay solution was prepared by dissolving 50 mg of Thiazolyl Blue Tetrazolium Bromide (SIGMA) in 10 mL of PBS (−). 50 μL of the MTT assay solution was added to each culture prepared in (1) and reacted for 4 hours. Then, 1 mL of isopropanol for MTT was added to each culture and the plate was covered with aluminum foil and allowed for reaction at room temperature for 2 hours for the reaction. After the reaction, the total amount was collected and centrifuged (1.45×10^3 rpm, 1 min), then 150 μL each of the supernatants was transferred into a 96 well plate, and the absorbance was measured at 590 nm. The relative cell survival rate (cytotoxicity) was calculated by determining the relative value to the control.
as §2

mushroom tyrosinase = test: Tyrosinase activity assay (methanol extract, fractions, Compounds 1-3); assay type: biochemical; settings: Table 5
Description: 1 mg of methanol extract from Syzygium polyanthum prepared in Production Example 3 was dissolved in 50 μL of DMSO and 550 μL of a buffer (50 mM solution of disodium hydrogen phosphate, pH 6.5). This extract solution was transferred in a 96 well plate so that the final concentrations of extract became 500, 250, 125, 62.5, 31.25, 15.625, 7.8125 and 0 μg/mL and diluted to 60 μL with the buffer. 30 μL of the tyrosinase solution (a buffered solution of 1 mg/16 mL mushroom tyrosinase (SIGMA), pH 6.5) and 110 μL of the substrate solution (2 mM L-tyrosine or 12 mM L-DOPA) were added to each well of the 96 well plate.
Each fraction was dissolved in 600 μL of DMSO and added to 96-well plates to the final concentrations of 50, 25 and 12.5 μg/mL.
In the tyrosinase activity assay, the final concentrations of each compound were adjusted to 100, 50, 25, and 12.5 mM and IC50 was calculated. […] The result of the tyrosinase activity assay is illustrated in Table 5 and the results of the measurements of the relative amount of extracellular melanin and the relative cell survival rate are illustrated in Table 6.

[3] = substrate L-DOPA, read-out: IC50 (μM) DOPA
[4] = substrate L-tyrosine, read-out: IC50 (μM) Tyrosine

Row | IC50 (mushroom tyrosinase; [3]) | IC50 (mushroom tyrosinase; [4]) | Structure (SMILES) | activity at 730 µM (B16 melanoma cells [1]; 72 hours, relative to DMSO control, Table 3) | activity at 730 µM (B16 melanoma cells [1]; Table 6) | Cell Viability (%) (B16 melanoma cells [2]; 730 μM, 72 hours, MTT, relative to control, Table 3) | Cell Viability (%) (B16 melanoma cells [2]; 730 μM, Table 6) | activity at 100 µM (B16 melanoma cells [1]) | activity at 200 µM (B16 melanoma cells [1]; 200 μM) | Cell Viability (%) (B16 melanoma cells [2]; 100 μM) | Cell Viability (%) (B16 melanoma cells [2]; 200 μM) | activity at 25 µM (B16 melanoma cells [1]) | activity at 50 µM (B16 melanoma cells [1]) | Cell Viability (%) (B16 melanoma cells [2]; 25 μM) | Cell Viability (%) (B16 melanoma cells [2]; 50 μM) | activity at 75 µM (B16 melanoma cells [1]; 75 μM) | Cell Viability (%) (B16 melanoma cells [2]; 75 μM)
1 | – | – | OC[C@H]1O[C@@H](Oc2ccc(O)cc2)[C@H](O)[C@@H](O)[C@@H]1O [Arbutin, reference compound] | 21.3% | 32.7% | 99% | 107.6% | – | – | – | – | – | – | – | – | – | –
2 | 291 µM | 125 µM | CCCCCC(=O)c1cc(O)c(C)c(O)c1O [Compound 1, 1-(2,3,5-Trihydroxy-4-methylphenyl)hexane-1-one] | – | – | – | – | 78.2% | 13.6% | 73.3% | 64.9% | – | – | – | – | – | –
3 | 616 µM | 481 µM | CCCCCCCC(=O)c1cc(O)c(C)c(O)c1O [Compound 2, 1-(2,3,5-Trihydroxy-4-methylphenyl)octane-1-one] | – | – | – | – | – | – | – | – | 99% | 13.5% | 95.0% | 87.4% | – | –
4 | 489 µM | 84 µM | CCCCC/C=C/CCC(=O)c1cc(O)c(C)c(O)c1O [Compound 3, (4E)-1-(2,3,5-Trihydroxy-4-methylphenyl)dec-4-en-1-one] | – | – | – | – | 11.4% | – | 72.9% | – | 107% | 27.2% | 94.3% | 99.8% | 9.7% | 92.5%
